Laboratory results taken from patent publication US20250049970A1, “DLL3 TARGETING PEPTIDES AND CONSTRUCTS THEREOF” (MARIANA ONCOLOGY INC., priority 2023, published 2025).
Where a SMILES comes first, the peptide text is derived from it. Bridges are numbered along the chain shown (N, C = ends). [ ]: non-standard residue; d: D form. The star is where a group is joined. DOTA = O=C(O)CN1CCN(CC(=O)O)CCN(CC(=O)*)CCN(CC(=O)O)CC1; 2Nal = N[C@@H](Cc1ccc2ccccc2c1)C(=O)O; Gly(4-THP) = N[C@H](C(=O)O)C1CCOCC1; Cha = N[C@@H](CC1CCCCC1)C(=O)O

Columns and labels:
[1] = target: T1, DLL3 (Homo sapiens, UniProt Q9NYJ7); assay: SPR KD, biotinylated human DLL3 on streptavidin chip (Table 8); design: biotin (biotinylated); details: biotinylated human DLL3 on streptavidin sensor chip, 25° C., 1:1 binding model; read-out: SPR KD
T1 sequence (Q9NYJ7 27-618): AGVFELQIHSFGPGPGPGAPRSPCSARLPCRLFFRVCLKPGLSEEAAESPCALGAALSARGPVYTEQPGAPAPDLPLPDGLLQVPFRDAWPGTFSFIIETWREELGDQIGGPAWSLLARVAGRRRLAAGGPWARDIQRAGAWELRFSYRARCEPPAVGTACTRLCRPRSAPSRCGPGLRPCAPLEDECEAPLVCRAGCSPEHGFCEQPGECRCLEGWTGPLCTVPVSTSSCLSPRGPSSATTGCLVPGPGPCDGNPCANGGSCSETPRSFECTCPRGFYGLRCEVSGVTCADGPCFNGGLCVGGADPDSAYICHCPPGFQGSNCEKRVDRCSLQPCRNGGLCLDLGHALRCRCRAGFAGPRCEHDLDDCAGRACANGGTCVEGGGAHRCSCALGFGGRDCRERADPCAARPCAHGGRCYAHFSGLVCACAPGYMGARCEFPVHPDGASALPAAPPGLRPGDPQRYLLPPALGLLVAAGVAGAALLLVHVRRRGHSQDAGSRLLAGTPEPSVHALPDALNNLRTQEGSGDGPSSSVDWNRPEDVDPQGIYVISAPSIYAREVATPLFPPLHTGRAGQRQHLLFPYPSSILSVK
Text: Biotinylated target ligand human DLL3 was immobilized on a streptavidin sensor chip. A reference surface was set up for nonspecific binding and refractive index changes. […] Sensorgram curves were fitted with 1:1 binding model, and affinity and kinetic parameters were obtained using Biacore Insight evaluation 4.0. software.

[2] = test system: SHP-77 cells; assay: Internalization of [177Lu]Lu-labeled peptide, SHP-77 cells; type: cell-based; details: 1 h, 37° C.
Description: (§1) [^177Lu]LuCl3 was received from venders in HCl solution. For every mCi of [^177Lu]LuCl3 added to the reaction vial (1.5 mL Eppendorf vial), ammonium acetate buffer (0.2 M, pH 4.9, 100 μL, containing 1% w/v ascorbic acid and 6% v/v ethanol) and peptide conjugate (1 nmol; also referred to herein as “chelator-peptides”) was added. The pH of the solution was determined to be approximately 5 by using pH strips. The reaction vial was incubated at 80° C., 700 RPM for 17-20 minutes. A sample from the reaction was analyzed by RP-HPLC using an Agilent Infinity II 1260 HPLC to determine reaction completion and radiochemical purity of [^177Lu]Lu-chelator-peptides. HPLC conditions: Waters XBridge BEH C18 Column, 130A, 3.5 μm, 4.6 mm×250 mm; mobile phase: Solvent A=water (with 0.1% formic acid), solvent B=acetonitrile (with 0.1% formic acid). Gradients: 25-45% B in 10 minutes, 45-65% B in 12 minutes, 65-90% in 6 minutes at a flow rate of 0.5 mL/minutes Required amounts of the product was formulated in 1% PBSA for cell studies.
(§2) The study was conducted using SHP-77, CT26.WT, CT26.DLL3, and HEK293.DLL3 cells (Table 9)
(§3) Adherent cell studies: The cells were cultured in appropriate culture media (20 mL) in tissue culture treated T150 flasks at 37° C. and 5% C02. Adherent cells were detached (60-70% confluent) using 5 mL Versene at 37° C. for 3 minutes. After confirming the viability using countess and count of detached cells using Trypan blue, the cells were centrifuged at 4° C. for 5 minutes (1,000 rpm). The cell pellet obtained was washed once with PBS and resuspended in 1% PBSA to obtain the desired cell concentration (5-25 million cells/mL).
as §3, with “Suspension” for “Adherent”, “CO2.” for “C02. Adherent cells were detached (60-70% confluent) using 5 mL Versene at 37° C. for 3 minutes.”, “viability” for “viability using countess”
(§4) Cell numbers used for the assay were in the range of 5 million cells/condition-25 million cells/condition.
(§5) Internalization: The resuspended cells in 300 μL of 1% PBSA and counted in the gamma counter as “bound fraction” were collected in 1.5 mL Eppendorf tube and pelleted. The pelleted cells were incubated with 300 μL of 50 mM Glycine pH=2.5 for 3 minutes and then pelleted discarding the supernatant. This process was repeated one more time. The pelleted cells were washed with 300 μL of cold 1% PBSA and then resuspended in 300 μl 0.3M NaOH. This was counted in the gamma counter as “internalized fraction”.
(§6) In these Tables, “A” represents % s ≤25; “B” represents 25 <% ≤50; “C” represents % >50.

[3] = test system: SHP-77 cells; assay: Cell binding (total uptake) of [177Lu]Lu-labeled peptide, SHP-77 cells; type: cell-based; details: 1 h, 37° C.
Description: as §1, §2, §3
as §3, with “Suspension” for “Adherent”, “CO2.” for “C02. Adherent cells were detached (60-70% confluent) using 5 mL Versene at 37° C. for 3 minutes.”, “viability” for “viability using countess”
as §4
(§7) Total uptake: Cells were incubated with 300 μL (0.8 μCi) of the incubation buffer (containing radiolabeled peptide [^177Lu]Lu-test peptide) for 1 hour at 37° C. (Table 10). Post incubation, the cells were pelleted and washed 2 times using cold PBS+1% BSA. The supernatant and washes were combined and counted together as “unbound fraction” in a gamma counter. The cells were then resuspended in 300 μL of 1% PBS+1% BSA and counted in the gamma counter as “bound fraction”.
as §6

[4] = test system: CT26.DLL3 cells; assay: Cell binding (total uptake) of [177Lu]Lu-labeled peptide, CT26.DLL3 cells; type: cell-based; details: 1 h, 37° C.
Description: as §1, §2, §3, §4, §7, §6

[5] = test system: nude mice bearing SHP-77 tumors; assay: Ex vivo biodistribution of radiolabeled peptides (% IA/g) in nude mice bearing SHP-77 tumors; details: [177Lu]Lu labelling, 24 hours post-injection, intravenous
Method in brief: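 [177Lu]Lu-peptides were given as an IV tail-vein bolus once tumors reached 200-400 mm^3. Injected activity was set per mouse from syringe dose-calibrator readings. At set time points, tissues were weighed and gamma-counted, and counts were decay-corrected to injection and expressed as % IA/g.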

[6] = test system: CT26.DLL3 cells; assay: Internalization of [177Lu]Lu-labeled peptide, CT26.DLL3 cells; type: cell-based; details: 1 h, 37° C.
Description: as §1, §2, §3, §4, §5, §6

Kd [1] [nM] | kidney uptake (% IA/g) [5] | Structure (SMILES) | % Internalization (out of bound fraction) [2] | % Binding [3] | % Binding [4] | tumor uptake (% IA/g) [5] | % Internalization (out of bound fraction) [6]
< 1 | C (“C” represents 0 < % IA/g ≤ 10 in) | CC[C@H](C)[C@H](NC(=O)[C@@H](NC(=O)[C@H](Cc1c[nH]c2ccccc12)NC(C)=O)[C@@H](C)O)C(=O)N[C@H]1CSSC[C@@H](C(=O)N[C@@H](Cc2c[nH]c3ccccc23)C(=O)N2CCC[C@H]2C(N)=O)NC(=O)[C@H](CC(=O)O)NC(=O)[C@H](Cc2cnc[nH]2)NC(=O)[C@H](Cc2ccc3ccccc3c2)NC(=O)[C@H](CC(N)=O)NC(=O)[C@H](CCCCNC(=O)CN2CCN(CC(=O)O)CCN(CC(=O)O)CCN(CC(=O)O)CC2)NC1=O [compound 249, Ac-W-T-I-C(3)-Lys(DOTA)-N-(2Nal)-H-D-C(3)-W-P-CONH2] (Ac-WTICK(DOTA)N[2Nal]HDCWP-NH2; disulfide 4-10) | B (25 <% ≤50) | A (% s ≤25) | A (% s ≤25) | A (“A” represents 0 < % IA/g ≤ 5 in tumor) | B (25 <% ≤50)
< 1 | D (“D” represents % IA/g > 10 in kidney) | CC(=O)N[C@@H](Cc1c[nH]c2ccccc12)C(=O)N[C@H](C(=O)N[C@H](C(=O)N[C@H]1CSSC[C@@H](C(=O)N[C@@H](Cc2c[nH]c3ccccc23)C(=O)N2CCC[C@H]2C(N)=O)NC(=O)[C@H](CC(=O)O)NC(=O)[C@H](CCCCNC(=O)CN2CCN(CC(=O)O)CCN(CC(=O)O)CCN(CC(=O)O)CC2)NC(=O)[C@H](Cc2ccc3ccccc3c2)NC(=O)[C@H](CC(N)=O)NC(=O)[C@H](CC(N)=O)NC1=O)C1CCOCC1)[C@@H](C)O [compound 317, Ac-W-T-(THPG)-C(3)-N-N-(2Nal)-Lys(DOTA)-D-C(3)-W-P-CONH2] (Ac-WT[Gly(4-THP)]CNN[2Nal]K(DOTA)DCWP-NH2; disulfide 4-10) | B (25 <% ≤50) | A (% s ≤25) | A (% s ≤25) | A (“A” represents 0 < % IA/g ≤ 5 in tumor) | C (% >50)
< 1 | D (“D” represents % IA/g > 10 in kidney) | CC(=O)N[C@@H](Cc1c[nH]c2ccccc12)C(=O)N[C@H](C(=O)N[C@@H](CC1CCCCC1)C(=O)N[C@H]1CSSC[C@@H](C(=O)N[C@@H](Cc2c[nH]c3ccccc23)C(=O)N2CCC[C@H]2C(N)=O)NC(=O)[C@H](CC(=O)O)NC(=O)[C@H](CCCCNC(=O)CN2CCN(CC(=O)O)CCN(CC(=O)O)CCN(CC(=O)O)CC2)NC(=O)[C@H](Cc2ccc3ccccc3c2)NC(=O)[C@H](CC(N)=O)NC(=O)[C@H](CC(N)=O)NC1=O)[C@@H](C)O [compound 323, Ac-W-T-(CHA)-C(3)-N-N-(2Nal)-Lys(DOTA)-D-C(3)-W-P-CONH2] (Ac-WT[Cha]CNN[2Nal]K(DOTA)DCWP-NH2; disulfide 4-10) | B (25 <% ≤50) | A (% s ≤25) | A (% s ≤25) | A (“A” represents 0 < % IA/g ≤ 5 in tumor) | C (% >50)
